Measurements from PMC4522657, “Identification of a DYRK1A Inhibitor that Induces Degradation of the Target Kinase using Co-chaperone CDC37 fused with Luciferase nanoKAZ” (Scientific Reports, 2015).

What was measured:
[1] = target: T1, EGFR(T790M) (Homo sapiens, UniProt P00533, T790M); test: Kinase panel, CaNDY 1 µM; assay type: biochemical; conditions: CaNDY 1 µM relative to DMSO
T1 construct: purchased Carna Biosciences

[2] = target: T2, EGFR(T790M/L858R) (Homo sapiens, UniProt P00533, L858R/T790M); test: Kinase panel, CaNDY 1 µM; assay type: biochemical; conditions: CaNDY 1 µM relative to DMSO
T2 construct: purchased Carna Biosciences

[3] = target: T3, IRR (Homo sapiens, UniProt P14616); test: Kinase panel, CaNDY 1 µM; assay type: biochemical; conditions: CaNDY 1 µM relative to DMSO
T3 construct: purchased Carna Biosciences

[4] = target: T4, PYK2 (Homo sapiens, UniProt Q14289); test: Kinase panel, CaNDY 1 µM; assay type: biochemical; conditions: CaNDY 1 µM relative to DMSO
T4 construct: purchased Carna Biosciences

[5] = target: T5, RET(S891A) (Homo sapiens, UniProt P07949, S891A); test: Kinase panel, CaNDY 1 µM; assay type: biochemical; conditions: CaNDY 1 µM relative to DMSO
T5 construct: purchased Carna Biosciences

[6] = target: T6, SYK (Homo sapiens, UniProt P43405); test: Kinase panel, CaNDY 1 µM; assay type: biochemical; conditions: CaNDY 1 µM relative to DMSO
T6 construct: purchased Carna Biosciences

[7] = target: T7, TNK1 (Homo sapiens, UniProt Q13470); test: Kinase panel, CaNDY 1 µM; assay type: biochemical; conditions: CaNDY 1 µM relative to DMSO
T7 construct: purchased Carna Biosciences

[8] = target: T8, TYK2 (Homo sapiens, UniProt P29597); test: Kinase panel, CaNDY 1 µM; assay type: biochemical; conditions: CaNDY 1 µM relative to DMSO
T8 construct: purchased Carna Biosciences

[9] = target: T9, CaMK1α (Homo sapiens, UniProt Q14012); test: Kinase panel, CaNDY 1 µM; assay type: biochemical; conditions: CaNDY 1 µM relative to DMSO
T9 construct: purchased Carna Biosciences

[10] = target: T10, CK2α1/β (Homo sapiens, UniProt P68400); test: Kinase panel, CaNDY 1 µM; assay type: biochemical
T10 construct: purchased Carna Biosciences

[11] = target: T11, CRIK (Homo sapiens, UniProt O14578); test: Kinase panel, CaNDY 1 µM; assay type: biochemical; conditions: CaNDY 1 µM relative to DMSO
T11 construct: purchased Carna Biosciences

[12] = target: T12, Erk1 (Homo sapiens, UniProt P27361); test: Kinase panel, CaNDY 1 µM; assay type: biochemical; conditions: CaNDY 1 µM relative to DMSO
T12 construct: purchased Carna Biosciences

[13] = target: T13, Erk2 (Homo sapiens, UniProt P28482); test: Kinase panel, CaNDY 1 µM; assay type: biochemical; conditions: CaNDY 1 µM relative to DMSO
T13 construct: purchased Carna Biosciences

[14] = target: T14, MAP2K2_Cascade (Homo sapiens, UniProt P36507); test: Kinase panel, CaNDY 1 µM; assay type: biochemical; conditions: CaNDY 1 µM relative to DMSO
T14 construct: purchased Carna Biosciences

[15] = target: T15, MAP3K5_Cascade (Homo sapiens, UniProt Q99683); test: Kinase panel, CaNDY 1 µM; assay type: biochemical; conditions: CaNDY 1 µM relative to DMSO
T15 construct: purchased Carna Biosciences

[16] = target: T16, PAK6 (Homo sapiens, UniProt Q9NQU5); test: Kinase panel, CaNDY 1 µM; assay type: biochemical; conditions: CaNDY 1 µM relative to DMSO
T16 construct: purchased Carna Biosciences

[17] = target: T17, PDHK2 (Homo sapiens, UniProt Q15119); test: Kinase panel, CaNDY 1 µM; assay type: biochemical; conditions: CaNDY 1 µM relative to DMSO
T17 construct: purchased Carna Biosciences

[18] = target: T18, PIM1 (Homo sapiens, UniProt P11309); test: Kinase panel, CaNDY 1 µM; assay type: biochemical; conditions: CaNDY 1 µM relative to DMSO
T18 construct: purchased Carna Biosciences

[19] = target: T19, GST-tagged human DYRK1A (Homo sapiens, UniProt Q13627); test: ATP kinetics assay; assay type: biochemical
T19 construct: purchased Life Technologies PV3785
Experimental: The kinase reaction for ATP kinetics was performed in a reaction mixture containing serially diluted inhibitors, 10 mM MOPS-KOH (pH 7.0), 10 mM magnesium acetate, 200 μM EDTA, 2.5–40 μM ATP, 0.125–0.4 μCi [γ-^32P]ATP, 5 μM DYRKtide (Anaspec, CA, USA), and 1 nM of GST-tagged human DYRK1A (Cat# PV3785, Life Technologies), for a final volume of 25 μl. The final concentration of DMSO was adjusted to 0.1%, regardless of the inhibitor concentration. The reaction mixture was incubated at 30 °C for 15 min, and phosphoric acid (final 5%) was then added to stop the reaction. 25 μL of the reaction mixture was dispensed onto P81, a phosphocellulose membrane (Whatman, GE Healthcare), and washed four times in 5% phosphoric acid. Cherenkov light from the incorporated ^32P was measured using a liquid scintillation counter. The kinase assay conditions, including the incubation period and the concentration of the kinases and substrates, were optimized to maintain linearity during the incubation. The net radioactivity was determined by subtracting the background count from the reaction mixture without kinase. The amount of incorporated ^32P was calculated from the standard line. The Km and Ki values were calculated with Prism6 software (GraphPad Software, San Diego, CA, USA) using the competitive inhibition model.

[20] = system: other 19 kinases; test: Western blot of other kinases in HEK293 cells; assay type: cell-based; conditions: CaNDY 2 μM, 4 days
Experimental: To check selectivity of CaNDY for other kinases, we first examined protein expression of several kinases in HEK293 cells treated with CaNDY (2 μM) for 4 days. […] Third, protein expression of these kinases targeted by CaNDY (DYRK1A, DYRK1B, CLK1, and Haspin) was reassessed by Western blot analysis as performed in Fig. 7b.
Western blot analysis was performed using the antibodies described above. In brief, total cell lysates were separated by SDS-PAGE (5–20% gels; ATTO, Tokyo, Japan) under reducing conditions and then transferred to a PVDF membrane (PALL, SP, Brazil). Antibody reactions were performed with Can Get Signal® Immunoreaction Enhancer Solution (Toyobo). Peroxidase activities on the membrane were visualized with ECL Western Blotting Detection Reagents (GE Healthcare) or ImmunoStar® LD (Wako Pure Chemical Industries, Osaka, Japan), and a ChemiDoc^TM MP Imaging System (Bio-Rad, Hercules, CA, USA).

[21] = target: CLK1 (Homo sapiens, UniProt P49759); test: Kinase panel, CaNDY 1 µM; assay type: biochemical; parameters: purchased Carna Biosciences
From the text: Detailed information on the assay conditions is available on the website of Carna Biosciences (http://www.carnabio.com/english/index.html; Kobe, Japan). In brief, full-length human recombinant kinases were expressed using a baculovirus expression system as amino-terminal GST-fusion proteins, and purified by glutathione-Sepharose chromatography. The GenBank accession numbers of DYRK1A, DYRK1B, DYRK2, and DYRK3 were NP_001387.2, NP_004705.1, NP_003574.1, and NP_003573.2. […] For each compound, a DMSO solution was diluted in assay buffer to yield a final concentration of 1% DMSO. After incubation for one hour at room temperature, substrate phosphorylation was analyzed by electrophoretic separation of the substrate and products using a Caliper LC3000 platform (Caliper Life Sciences, Mountain View, CA, USA). The phosphorylated product (P)/(P + substrate) ratio was calculated at each concentration of each small molecule and the percent inhibition was expressed relative to a control assay in the absence of the small molecule. […] The IC50 of each compound was calculated by interpolation on a log-concentration-response curve fitted with a four-parameter logistic equation.
All kinase assays were carried out at Carna Biosciences. The inhibitory map was made with Kinome Render[36].

T10 sequence (P68400 whole entry): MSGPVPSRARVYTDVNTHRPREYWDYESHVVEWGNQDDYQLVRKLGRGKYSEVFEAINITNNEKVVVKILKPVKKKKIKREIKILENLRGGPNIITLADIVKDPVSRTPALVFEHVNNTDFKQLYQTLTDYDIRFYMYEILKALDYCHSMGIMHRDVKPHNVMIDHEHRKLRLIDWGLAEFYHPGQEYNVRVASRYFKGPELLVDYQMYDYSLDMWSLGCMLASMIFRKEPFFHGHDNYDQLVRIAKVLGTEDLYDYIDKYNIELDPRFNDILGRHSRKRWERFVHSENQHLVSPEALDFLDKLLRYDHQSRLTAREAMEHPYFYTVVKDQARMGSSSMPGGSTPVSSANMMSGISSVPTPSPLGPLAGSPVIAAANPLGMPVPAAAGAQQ
T10 sequence (P67870 whole entry partner): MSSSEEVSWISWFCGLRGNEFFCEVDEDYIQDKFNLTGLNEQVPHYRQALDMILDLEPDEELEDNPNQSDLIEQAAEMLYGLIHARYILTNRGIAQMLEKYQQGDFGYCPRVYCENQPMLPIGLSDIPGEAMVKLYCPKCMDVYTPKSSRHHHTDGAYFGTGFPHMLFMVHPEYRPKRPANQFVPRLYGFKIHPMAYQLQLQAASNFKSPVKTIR
Sequence of CLK1 (P49759 whole entry, the tested form may be a part): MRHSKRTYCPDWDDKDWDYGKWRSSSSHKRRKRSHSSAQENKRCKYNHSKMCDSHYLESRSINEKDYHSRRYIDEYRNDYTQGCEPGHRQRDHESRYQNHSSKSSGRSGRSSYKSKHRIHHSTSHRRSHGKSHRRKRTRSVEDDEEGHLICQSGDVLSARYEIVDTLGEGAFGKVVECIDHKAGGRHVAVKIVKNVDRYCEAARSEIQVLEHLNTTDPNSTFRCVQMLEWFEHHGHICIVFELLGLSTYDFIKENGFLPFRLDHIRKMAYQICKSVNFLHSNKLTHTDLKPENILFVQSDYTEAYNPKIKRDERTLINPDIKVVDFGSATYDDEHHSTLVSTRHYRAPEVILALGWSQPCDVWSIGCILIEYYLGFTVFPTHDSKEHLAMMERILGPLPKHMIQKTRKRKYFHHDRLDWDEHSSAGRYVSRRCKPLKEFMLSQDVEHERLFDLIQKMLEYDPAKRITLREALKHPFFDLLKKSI
T18 sequence (P11309 whole entry): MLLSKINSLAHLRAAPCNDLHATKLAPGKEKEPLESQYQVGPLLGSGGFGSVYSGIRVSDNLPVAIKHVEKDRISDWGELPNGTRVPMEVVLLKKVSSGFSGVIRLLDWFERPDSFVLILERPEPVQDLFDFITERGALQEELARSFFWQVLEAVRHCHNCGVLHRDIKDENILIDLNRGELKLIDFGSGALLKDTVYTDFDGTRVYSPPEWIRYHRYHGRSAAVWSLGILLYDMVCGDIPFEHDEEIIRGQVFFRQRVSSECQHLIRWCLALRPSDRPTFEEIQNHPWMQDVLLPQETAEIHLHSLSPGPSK
T15 sequence (Q99683 whole entry): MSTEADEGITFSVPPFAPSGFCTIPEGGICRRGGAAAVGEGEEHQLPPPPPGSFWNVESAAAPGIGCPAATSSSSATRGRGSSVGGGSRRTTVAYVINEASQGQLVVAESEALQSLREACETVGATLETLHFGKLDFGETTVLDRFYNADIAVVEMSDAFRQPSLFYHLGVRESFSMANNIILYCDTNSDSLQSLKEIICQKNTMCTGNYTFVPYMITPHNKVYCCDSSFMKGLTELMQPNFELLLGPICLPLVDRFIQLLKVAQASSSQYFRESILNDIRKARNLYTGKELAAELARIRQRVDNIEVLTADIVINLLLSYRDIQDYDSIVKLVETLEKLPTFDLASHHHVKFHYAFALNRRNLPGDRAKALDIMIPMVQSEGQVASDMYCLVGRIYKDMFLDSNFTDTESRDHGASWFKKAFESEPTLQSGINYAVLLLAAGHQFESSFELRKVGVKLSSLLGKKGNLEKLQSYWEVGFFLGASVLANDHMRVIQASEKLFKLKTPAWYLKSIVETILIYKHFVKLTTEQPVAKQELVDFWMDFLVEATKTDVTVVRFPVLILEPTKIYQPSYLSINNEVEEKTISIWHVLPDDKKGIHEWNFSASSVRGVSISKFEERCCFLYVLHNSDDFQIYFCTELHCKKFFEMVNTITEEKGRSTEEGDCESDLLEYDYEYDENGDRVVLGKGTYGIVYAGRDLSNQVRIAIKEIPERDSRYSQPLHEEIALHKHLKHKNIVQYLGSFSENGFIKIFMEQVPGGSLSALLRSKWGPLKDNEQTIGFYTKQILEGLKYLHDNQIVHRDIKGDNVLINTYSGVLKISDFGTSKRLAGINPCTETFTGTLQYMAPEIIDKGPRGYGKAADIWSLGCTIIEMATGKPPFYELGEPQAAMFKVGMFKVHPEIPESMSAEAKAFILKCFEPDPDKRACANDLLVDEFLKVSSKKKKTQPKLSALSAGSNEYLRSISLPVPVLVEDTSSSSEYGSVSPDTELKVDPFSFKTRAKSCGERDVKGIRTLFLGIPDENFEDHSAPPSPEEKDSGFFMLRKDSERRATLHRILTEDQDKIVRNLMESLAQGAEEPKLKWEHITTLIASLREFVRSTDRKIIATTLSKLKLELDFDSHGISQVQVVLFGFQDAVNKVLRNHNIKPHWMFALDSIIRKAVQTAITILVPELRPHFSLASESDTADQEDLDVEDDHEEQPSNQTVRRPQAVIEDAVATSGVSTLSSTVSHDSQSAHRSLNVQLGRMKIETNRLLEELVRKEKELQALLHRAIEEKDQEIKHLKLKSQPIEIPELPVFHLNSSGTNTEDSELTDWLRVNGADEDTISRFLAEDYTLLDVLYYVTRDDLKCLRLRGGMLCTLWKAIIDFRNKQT
T8 sequence (P29597 whole entry): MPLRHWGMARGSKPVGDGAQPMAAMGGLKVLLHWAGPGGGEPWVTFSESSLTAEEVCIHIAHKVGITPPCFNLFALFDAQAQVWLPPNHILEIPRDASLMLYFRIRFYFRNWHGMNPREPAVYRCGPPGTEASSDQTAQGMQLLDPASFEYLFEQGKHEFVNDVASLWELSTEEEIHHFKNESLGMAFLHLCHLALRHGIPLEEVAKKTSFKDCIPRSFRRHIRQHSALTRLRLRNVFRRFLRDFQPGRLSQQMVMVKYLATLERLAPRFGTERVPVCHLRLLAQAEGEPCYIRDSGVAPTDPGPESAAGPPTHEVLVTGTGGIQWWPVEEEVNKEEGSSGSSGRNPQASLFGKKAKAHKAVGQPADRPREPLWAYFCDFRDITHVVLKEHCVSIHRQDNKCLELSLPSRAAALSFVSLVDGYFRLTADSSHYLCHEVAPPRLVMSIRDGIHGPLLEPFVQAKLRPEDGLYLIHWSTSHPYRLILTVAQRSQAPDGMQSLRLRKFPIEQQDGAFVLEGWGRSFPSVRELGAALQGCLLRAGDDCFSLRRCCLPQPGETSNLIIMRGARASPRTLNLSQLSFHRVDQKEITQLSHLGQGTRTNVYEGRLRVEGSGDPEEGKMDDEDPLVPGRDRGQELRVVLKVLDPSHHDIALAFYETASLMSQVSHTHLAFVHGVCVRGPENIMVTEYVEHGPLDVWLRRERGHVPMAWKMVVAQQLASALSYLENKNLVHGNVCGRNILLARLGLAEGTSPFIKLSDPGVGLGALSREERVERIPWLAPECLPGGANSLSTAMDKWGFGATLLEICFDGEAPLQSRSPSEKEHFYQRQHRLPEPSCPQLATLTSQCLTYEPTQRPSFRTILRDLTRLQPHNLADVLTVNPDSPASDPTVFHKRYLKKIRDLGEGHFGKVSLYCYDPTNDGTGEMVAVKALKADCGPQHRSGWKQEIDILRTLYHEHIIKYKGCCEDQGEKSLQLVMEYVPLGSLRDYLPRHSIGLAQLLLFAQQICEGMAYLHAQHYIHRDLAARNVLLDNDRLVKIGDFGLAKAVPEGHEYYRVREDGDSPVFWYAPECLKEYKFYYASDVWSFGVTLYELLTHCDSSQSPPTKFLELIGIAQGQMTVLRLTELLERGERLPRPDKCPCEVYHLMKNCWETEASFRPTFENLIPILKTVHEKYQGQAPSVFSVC
T14 sequence (P36507 whole entry): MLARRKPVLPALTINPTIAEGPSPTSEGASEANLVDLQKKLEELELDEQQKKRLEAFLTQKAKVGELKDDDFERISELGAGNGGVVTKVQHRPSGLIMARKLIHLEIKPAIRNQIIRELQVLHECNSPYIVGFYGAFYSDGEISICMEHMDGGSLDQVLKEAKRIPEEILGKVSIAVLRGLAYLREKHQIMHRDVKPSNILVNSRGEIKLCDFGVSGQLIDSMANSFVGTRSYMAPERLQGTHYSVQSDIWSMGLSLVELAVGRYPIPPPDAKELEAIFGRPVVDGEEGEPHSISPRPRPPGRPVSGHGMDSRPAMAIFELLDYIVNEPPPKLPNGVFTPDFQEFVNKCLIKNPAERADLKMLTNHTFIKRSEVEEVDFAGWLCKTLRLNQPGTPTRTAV
T13 sequence (P28482 whole entry): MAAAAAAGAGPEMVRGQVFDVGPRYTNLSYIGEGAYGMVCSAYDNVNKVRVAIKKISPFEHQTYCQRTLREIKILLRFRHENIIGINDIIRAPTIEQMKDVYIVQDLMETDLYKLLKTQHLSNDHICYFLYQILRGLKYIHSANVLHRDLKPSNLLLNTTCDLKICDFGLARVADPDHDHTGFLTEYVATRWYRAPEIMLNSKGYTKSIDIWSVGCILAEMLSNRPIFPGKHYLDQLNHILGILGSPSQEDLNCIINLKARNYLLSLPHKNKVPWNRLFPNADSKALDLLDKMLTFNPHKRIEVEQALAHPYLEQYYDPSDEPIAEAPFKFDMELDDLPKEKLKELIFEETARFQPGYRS

For `[H]/N=C1/NC(=O)C(=Cc2ccc3c(c2)CCO3)S1` [CaNDY, (Z)-5-[(2,3-dihydrobenzofuran-5-yl)methylene]-2-iminothiazolidin-4-one], the “%Activity” value [1] was 107.5%, the “%Activity” value [2] was 106.6% and the remaining activity at 1 µM [3] was 103%. For the same compound, the remaining activity at 1 µM [4] was 98.7%, the remaining activity at 1 µM [5] was 103% and the “%Activity” value [6] was 93.7%. For the same compound, the remaining activity at 1 µM [7] was 99.7%, the “%Activity” value [8] was 97.4% and the remaining activity at 1 µM [9] was 100%. For the same compound, the remaining activity at 1 µM ([10]; CK2α1/β, CaNDY 1 µM relative to DMSO) was 34.7%, the inhibition at 1 µM ([10]; CK2α, 1 μM CaNDY, read-out: percentage inhibition) was 65% and the “%Activity” value [11] was 87.0%. The remaining activity at 1 µM [12] was 96.2%, the remaining activity at 1 µM [13] was 97.6% and the remaining activity at 1 µM [14] was 94.7%. The remaining activity at 1 µM [15] was 103%, the remaining activity at 1 µM [16] was 101% and the remaining activity at 1 µM [17] was 91.6%. The remaining activity at 1 µM [18] was 36.5%, the Ki ([19]; competitive inhibition model, 2.5–40 μM ATP) was 1.92 nM and the mode of inhibition ([19]; double-reciprocal plots) was “competed with ATP on a single site of DYRK1A”. The “protein expression of other kinases” value [20] was “did not decrease the other 19 kinases”, the “%Activity” value ([21]; CLK1, CaNDY 1 µM relative to DMSO) was 3.0% and the inhibition at 1 µM ([21]; read-out: percentage inhibition) was over 90%.
